According to patent US9267949B2, “Alkylamino BODIPY dyes as selective fluorescent probes for proteins and mouse embryonic stem cells” (National University of Singapore, priority 2011, dated 2016):

Tests used:
[1] = Quantum yield measurements; assay type: physicochemical; conditions: referred to Rhodamine B in EtOH, excitation 510 nm, emission integrated 540-800 nm
Procedure: Quantum yields were calculated by measuring the integrated emission area of the fluorescent spectra, and referring them to the area measured for Rhodamine B in EtOH after excitation at 510 nm (ΦRho-B=0.70). Quantum yields for the BDM products were then calculated using equation below, where F represents the area of fluorescent emission, n is reflective index of the solvent, and Abs is absorbance at excitation wavelength selected for standards and samples. Emission was integrated from 540 nm to 800 nm.

[2] = Spectroscopic properties of the BDM library (absorbance and emission maxima); assay type: physicochemical

| φ (quantum yield) [1] | λmax (ABS) [2] [nm] | λmax (EM) [2] [nm] | SMILES |
| --- | --- | --- | --- |
| 0.06 | 592 | 653 | COc1ccc2[nH]cc(/C=C/C3=[N+]4C(=C(CCN)c5cccn5[B-]4(F)F)C(C)=C3)c2c1 [BDM-93] |
| 0.04 | 561 | 572 | COc1cccc(/C=C/C2=[N+]3C(=C(CCN)c4cccn4[B-]3(F)F)C(C)=C2)c1O [BDM-97] |
| 0.43 | 571 | 582 | CC1=CC(/C=C/c2ccc(Br)s2)=[N+]2C1=C(CCN)c1cccn1[B-]2(F)F [BDM-100] |
| 0.66 | 559 | 576 | CC1=CC(/C=C/c2ccc(Oc3ccccc3)cc2)=[N+]2C1=C(CCN)c1cccn1[B-]2(F)F [BDM-101] |
| 0.18 | 556 | 567 | CC1=CC(/C=C/c2cccc(O)c2)=[N+]2C1=C(CCN)c1cccn1[B-]2(F)F [BDM-105] |
| 0.05 | 617 | 681 | CCN(CC)c1ccc(/C=C/C2=[N+]3C(=C(CCN)c4cccn4[B-]3(F)F)C(C)=C2)cc1 [BDM-107] |
| 0.35 | 549 | 573 | CC1=CC(/C=C/c2c(C)cc(C)cc2C)=[N+]2C1=C(CCN)c1cccn1[B-]2(F)F [BDM-108] |
| 0.85 | 563 | 583 | COc1ccc(/C=C/C2=[N+]3C(=C(CCN)c4cccn4[B-]3(F)F)C(C)=C2)cc1 [BDM-110] |
| 0.79 | 566 | 589 | CC(=O)Nc1ccc(/C=C/C2=[N+]3C(=C(CCN)c4cccn4[B-]3(F)F)C(C)=C2)cc1 [BDM-111] |
| 0.05 | 568 | 594 | COc1ccc(/C=C/C2=[N+]3C(=C(CCN)c4cccn4[B-]3(F)F)C(C)=C2)cc1O [BDM-132] |
| 0.10 | 577 | 601 | CC1=CC(/C=C/c2ccc(C)o2)=[N+]2C1=C(CCN)c1cccn1[B-]2(F)F [BDM-135] |
| 0.28 | 563 | 575 | CC1=CC(/C=C/c2ccc3ccccc3c2)=[N+]2C1=C(CCN)c1cccn1[B-]2(F)F [BDM-137] |
| 0.55 | 564 | 584 | CC1=CC(/C=C/c2ccc3c(c2)OCO3)=[N+]2C1=C(CCN)c1cccn1[B-]2(F)F [BDM-139] |
| 0.57 | 564 | 585 | CCCOc1ccc(/C=C/C2=[N+]3C(=C(CCN)c4cccn4[B-]3(F)F)C(C)=C2)cc1 [BDM-140] |
| 0.42 | 554 | 566 | CC1=CC(/C=C/c2ccccc2C)=[N+]2C1=C(CCN)c1cccn1[B-]2(F)F [BDM-143] |
| 0.05 | 578 | 612 | COc1cc(OC)c(OC)cc1/C=C/C1=[N+]2C(=C(CCN)c3cccn3[B-]2(F)F)C(C)=C1 [BDM-144] |
| 0.41 | 566 | 586 | CC1=CC(/C=C/c2ccc(OCCCN(C)C)cc2)=[N+]2C1=C(CCN)c1cccn1[B-]2(F)F [BDM-163] |
| 0.78 | 556 | 567 | CC1=CC(/C=C/c2ccc(C(C)(C)C)cc2)=[N+]2C1=C(CCN)c1cccn1[B-]2(F)F [BDM-177] |

| φ (quantum yield) [1] | λmax (ABS) [2] [nm] | λmax (EM) [2] [nm] | SMILES |
| --- | --- | --- | --- |
| 0.37 | 561 | 577 | COc1ccc(Oc2ccc(/C=C/C3=[N+]4C(=C(CCN)c5cccn5[B-]4(F)F)C(C)=C3)cc2)cc1 [BDM-178] |
| 0.26 | 566 | 581 | COC(=O)c1ccc(-c2ccc(/C=C/C3=[N+]4C(=C(CCN)c5cccn5[B-]4(F)F)C(C)=C3)cc2)cc1 [BDM-179] |
| 0.97 | 553 | 564 | COc1cccc(/C=C/C2=[N+]3C(=C(CCN)c4cccn4[B-]3(F)F)C(C)=C2)c1 [BDM-186] |
| 0.20 | 574 | 605 | COc1ccc(/C=C/C2=[N+]3C(=C(CCN)c4cccn4[B-]3(F)F)C(C)=C2)c(O)c1 [BDM-192] |
| 0.03 | 600 | 663 | COc1ccc(-c2ccc(/C=C/C3=[N+]4C(=C(CCN)c5cccn5[B-]4(F)F)C(C)=C3)o2)cc1Cl [BDM-195] |
| 0.59 | 559 | 574 | COc1ccccc1/C=C/C1=[N+]2C(=C(CCN)c3cccn3[B-]2(F)F)C(C)=C1 [BDM-198] |
| 0.18 | 562 | 574 | CC1=CC(/C=C/c2ccc(-c3cncnc3)cc2)=[N+]2C1=C(CCN)c1cccn1[B-]2(F)F [BDM-199] |
| 0.52 | 559 | 575 | C=CCOc1ccccc1/C=C/C1=[N+]2C(=C(CCN)c3cccn3[B-]2(F)F)C(C)=C1 [BDM-202] |
| 0.24 | 553 | 566 | CC1=CC(/C=C/c2ccccc2Cl)=[N+]2C1=C(CCN)c1cccn1[B-]2(F)F [BDM-207] |
| 0.27 | 558 | 572 | CC1=CC(/C=C/c2ccc(C)cc2)=[N+]2C1=C(CCN)c1cccn1[B-]2(F)F [BDM-208] |
| 0.38 | 555 | 567 | COc1cc(/C=C/C2=[N+]3C(=C(CCN)c4cccn4[B-]3(F)F)C(C)=C2)cc(OC)c1 [BDM-209] |
| 0.37 | 559 | 574 | CC1=CC(/C=C/c2ccccc2OCc2ccccc2)=[N+]2C1=C(CCN)c1cccn1[B-]2(F)F [BDM-218] |
| 0.24 | 557 | 567 | COc1cc(Br)cc(/C=C/C2=[N+]3C(=C(CCN)c4cccn4[B-]3(F)F)C(C)=C2)c1OC [BDM-228] |
| 0.17 | 558 | 568 | CC1=CC(/C=C/c2cccc3c2OCO3)=[N+]2C1=C(CCN)c1cccn1[B-]2(F)F [BDM-231] |
| 0.22 | 574 | 594 | CC1=CC(/C=C/c2ccc(C)s2)=[N+]2C1=C(CCN)c1cccn1[B-]2(F)F [BDM-236] |
| 0.35 | 558 | 572 | CC1=CC(/C=C/c2ccc(I)cc2)=[N+]2C1=C(CCN)c1cccn1[B-]2(F)F [BDM-237] |
| 0.28 | 559 | 572 | COc1ccc(F)cc1/C=C/C1=[N+]2C(=C(CCN)c3cccn3[B-]2(F)F)C(C)=C1 [BDM-239] |
| 0.23 | 552 | 565 | CC1=CC(/C=C/c2ccccc2OC(F)F)=[N+]2C1=C(CCN)c1cccn1[B-]2(F)F [BDM-240] |
